Tested on: healthy, elderly men
Experiment: Phase I repeated dose study 101-50202: serum hormone concentrations before and during 28-day treatment
Format: in vivo, human
Conditions: for increase in the mean total testosterone compared to the baseline concentration: 300 mg dose
From the text: Fispemifene has been studied in two phase I studies in humans—in a single dose and a repeated dose study. Effect of fispemifene on hormone levels was one main focus of the repeated dose study. The phase I repeated dose study (number 101-50202) was a randomized, double-blind, placebo-controlled 28-day dose-escalation study performed in 32 healthy, elderly men, aged 50-68 years. The main objective of the study was to investigate the tolerability, safety and pharmacokinetics of fispemifene after repeated oral doses, but the study focused also on the effects of fispemifene on serum testosterone, estradiol, and other relevant hormones. The fispemifene doses 10, 30, 100 and 300 mg per day and placebo were administered once every morning as capsules containing 10 mg or 100 mg of fispemifene, or placebo. The dose was escalated to the next higher dose level, if the previous dose had been safe and well tolerated evaluated by the laboratory safety determinations and ultrasound of mammagy glands.
The variables for safety and tolerability were adverse events, vital signs, 12-lead ECG, clinical laboratory evaluations, physical examination, ultrasound examinations (mammary glands) and inhibin b. For pharmacokinetics, the concentrations of fispemifene and its metabolite(s) were to be evaluated. For pharmacodynamics, serum concentrations of FSH, LH, estradiol, testosterone, SHBG, prolactin, aldosterone, cortisol and TSH before and during treatment were measured and compared with the concentrations in the placebo-group.

In the case of `OCCOCCOc1ccc(/C(=C(/CCCl)c2ccccc2)c2ccccc2)cc1` [Fispemifene, (Z)-2-{2-[4-(4-Chloro-1,2-diphenylbut-1-enyl)phenoxy]ethoxy}ethanol], the “Serum total testosterone concentration, Mean” value (10 mg per day oral, Baseline) is reported as 19.33 nmol/L, the “Serum total testosterone concentration, Mean” value (10 mg per day oral, Day 8) is reported as 19.83 nmol/L and the “Serum total testosterone concentration, Mean” value (10 mg per day oral, Day 15) is reported as 20.50 nmol/L. For the same compound, the “Serum total testosterone concentration, Mean” value (10 mg per day oral, Day 22) was 22.00 nmol/L, the “Serum total testosterone concentration, Mean” value (10 mg per day oral, Day 28) was 17.40 nmol/L and the “Serum total testosterone concentration, Mean” value (30 mg per day oral, Baseline) was 15.00 nmol/L. For the same compound, the “Serum total testosterone concentration, Mean” value (30 mg per day oral, Day 8) was 14.40 nmol/L, the “Serum total testosterone concentration, Mean” value (30 mg per day oral, Day 15) was 15.00 nmol/L and the “Serum total testosterone concentration, Mean” value (30 mg per day oral, Day 22) was 15.80 nmol/L. For the same compound, the “Serum total testosterone concentration, Mean” value (30 mg per day oral, Day 28) was 14.80 nmol/L, the “increase of the mean total testosterone” value (100 mg dose, 28 days of treatment) was “about 32%” and the “subjects in whom an increase in testosterone serum concentration was seen” value (100 mg or 300 mg, 28-day treatment) was “all the subjects”. The “Serum total testosterone concentration, Mean” value (100 mg per day oral, Baseline) was 14.27 nmol/L, the “Serum total testosterone concentration, Mean” value (100 mg per day oral, Day 8) was 18.67 nmol/L and the “Serum total testosterone concentration, Mean” value (100 mg per day oral, Day 15) was 19.00 nmol/L. The “Serum total testosterone concentration, Mean” value (100 mg per day oral, Day 22) was 17.83 nmol/L, the “Serum total testosterone concentration, Mean” value (100 mg per day oral, Day 28) was 18.83 nmol/L and the “increase in the mean total testosterone compared to the baseline concentration” value (28 days of treatment) was 75%. For the same compound, the “increase in the mean total testosterone compared to the baseline concentration” value (28 days of treatment, listed as fispemifene) was “about 75%”, the “Serum total testosterone concentration, Mean” value (300 mg per day oral, Baseline) was 15.67 nmol/L and the “Serum total testosterone concentration, Mean” value (300 mg per day oral, Day 8) was 23.17 nmol/L. The “Serum total testosterone concentration, Mean” value (300 mg per day oral, Day 15) was 27.00 nmol/L, the “Serum total testosterone concentration, Mean” value (300 mg per day oral, Day 22) was 27.83 nmol/L and the “Serum total testosterone concentration, Mean” value (300 mg per day oral, Day 28) was 27.50 nmol/L. The “serum concentrations of testosterone, FSH, LH, and SHBG” value (during the 28 days of treatment) was “increased”, the “men with serum testosterone level above the upper limit of normal range (33 nmol/L) during treatment” value (highest dose (300 mg), six men) was “Two out of six men” and the “change in the serum testosterone concentration” value (within 28 days from the start of the treatment) was “clinically and statistically significant and dose dependent increase”.
